Assay [1] concerns umami taste. Kind of assay: Evaluation of amides 1 and 4 in a pork flavor, trained panel. It counts as in vivo, human. Particulars: amide at 20 ppm in pork flavor; scale 0 to 10; 5 panelists; pork flavor alone = 4.5. As for the experimental part:
3) Evaluation of Amides 1 and 4 in a Pork Flavor
Amides 1 and 4 were evaluated at 20 ppm by 5 trained panelists in a pork flavor on a blind test basis as described above.

In assay [2] the test system is umami taste. Put plainly: Umami intensity and liking of amide 1, an ingredient and their blend in hot mineral water, trained panel. Type of assay: in vivo, human. Here is the method: Pat. No. 7,807,206 (containing Rebaudioside A and stevioside), sea salt, succinic acid, yeast extract, hydrolyzed corn protein, or hydrolyzed wheat gluten) and a blend of the amide with the ingredient were weighed and hot mineral water was added to each sample according to the dosages indicated in each experiments. The samples were stirred in order to ensure the solubilisation of the ingredients. Each sample was coded, and tasted in a random order by 5 trained panelists. […] The panelists were also asked to describe the samples.

Setting [3] is: Table 10, scale 1-10, MSG 0.04%, Amide 1 20 ppm, glucosylated stevosides 8 ppm, blend 20 ppm + 8 ppm.
The mark [4] stands for this setting: Table 11, scale 1-10, MSG 0.04%, Amide 1 20 ppm, Sea Salt 0.03%, blend 20 ppm + 0.03%.
The mark [5] stands for this setting: Table 12, scale 1-10, MSG 0.04%, Amide 1 20 ppm, Succinic acid 36 ppm, blend 20 ppm + 36 ppm.
The mark [6] stands for this setting: Table 13, scale 1-10, MSG 0.04%, Amide 1 20 ppm, Yeast extract 60 ppm, blend 20 ppm + 60 ppm.
[7] abbreviates: Table 14, scale 1-10, MSG 0.04%, Amide 1 20 ppm, Yeast extract 175 ppm, blend 20 ppm + 175 ppm.
Setting [8] is: Table 15, scale 1-10, MSG 0.04%, Amide 1 10 ppm, Yeast extract 60 ppm, blend 10 ppm + 60 ppm.
[9] abbreviates: Table 16, scale 1-10, MSG 0.04%, Amide 1 20 ppm, Hydrolized corn protein 40 ppm, blend 20 ppm + 40 ppm.
Where [10] appears, read: Table 17, scale 1-10, MSG 0.04%, Amide 1 20 ppm, Hydrolized corn protein 320 ppm, blend 20 ppm + 320 ppm.
Setting [11] is: Table 18, scale 1-10, MSG 0.04%, Amide 1 20 ppm, Hydrolized wheat gluten 100 ppm, blend 20 ppm + 100 ppm.
Setting [12] is: Table 19, scale 1-10, MSG 0.04%, Amide 1 10 ppm, Nature Pep 971481 100 ppm, blend 10 ppm + 100 ppm.

`COc1ccc(CCNC(=O)/C=C/c2ccc(OC)c(OC)c2)cc1` [Amide 1, (E)-3-(3,4-dimethoxyphenyl)-N-(4-methoxyphenethyl)acrylamide] returned a Umami intensity in the assay with umami taste [1] of 6. Further, the Umami is recorded as 4.8 with umami taste [2] (setting [3]); 3.3 in the assay on umami taste [2] (setting [4]); 3.7 in the assay on umami taste [2] (setting [5]); 4.5 with umami taste [2] (setting [6]); 4.5 in the assay on umami taste [2] (setting [7]); 2.5 in the assay with umami taste [2] (setting [8]). The Umami worked out at 4.2 in the assay on umami taste [2] (setting [9]), 1.7 in the assay on umami taste [2] (setting [10]), 4.0 in the assay with umami taste [2] (setting [11]) and 3.7 with umami taste [2] (setting [12]).
With `COc1cccc(CCNC(=O)/C=C/c2ccc(OC)c(OC)c2)c1` [Amide 4, (E)-3-(3,4-dimethoxyphenyl)-N-(3-methoxyphenethyl)acrylamide], the Umami intensity in the assay with umami taste [1] is 7.
For `N[C@@H](CCC(=O)O)C(=O)[O-].[Na+]` [MSG, monosodium glutamate, reference compound], the Umami in the assay with umami taste [2] (setting [3]) is 5.8; with umami taste [2] (setting [4]) it was 5.8; in the assay on umami taste [2] (setting [5]) it was 4.2; in the assay with umami taste [2] (setting [6]) it was 5.5; in the assay on umami taste [2] (setting [7]), 5.5; in the assay with umami taste [2] (setting [8]), 4.0. Moreover, the Umami in the assay on umami taste [2] (setting [9]) was 5.4; in the assay with umami taste [2] (setting [10]), 3.0; in the assay with umami taste [2] (setting [11]), 5.5; in the assay with umami taste [2] (setting [12]) it was 7.2.
With `O=C(O)CCC(=O)O` [Succinic acid, succinic acid], the Umami with umami taste [2] (setting [5]) was found to be 1.0.

The values are drawn from patent publication US11224243B2, “Taste-modifying combinations” (FIRMENICH SA, priority 2012, dated 2022).
